Converted amounts (≈) assume the structure as drawn. The source made the active and inactive calls. The calls are words filed in the database; no cut-off is given here.
Legend:
Staphylococcus aureus [1] = assay: Antibacterial activity against Staphylococcus aureus 1199B measured after 24 hrs by Muller Hinton broth based MTT assay; assay type: functional
Staphylococcus aureus [2] = assay: Antibacterial activity against Staphylococcus aureus 1199 measured after 24 hrs by Muller Hinton broth based MTT assay; assay type: functional
Staphylococcus aureus [3] = assay: Antibacterial activity against Staphylococcus aureus K1758 measured after 24 hrs by Muller Hinton broth based MTT assay; assay type: functional
[4] = molecular target: T1, Quinolone resistance protein NorA (Staphylococcus aureus) (UniProt P0A0J7); assay: Inhibition of NorA in Staphylococcus aureus 1199B assessed as accumulation of norfloxacin at 3.9 ug/ml by measuring fluorescence intensity measured at 5 mins interval for 40 mins by fluorescence spectrophotometry; details: dose 3.9 µg/ml
T1 sequence (whole entry): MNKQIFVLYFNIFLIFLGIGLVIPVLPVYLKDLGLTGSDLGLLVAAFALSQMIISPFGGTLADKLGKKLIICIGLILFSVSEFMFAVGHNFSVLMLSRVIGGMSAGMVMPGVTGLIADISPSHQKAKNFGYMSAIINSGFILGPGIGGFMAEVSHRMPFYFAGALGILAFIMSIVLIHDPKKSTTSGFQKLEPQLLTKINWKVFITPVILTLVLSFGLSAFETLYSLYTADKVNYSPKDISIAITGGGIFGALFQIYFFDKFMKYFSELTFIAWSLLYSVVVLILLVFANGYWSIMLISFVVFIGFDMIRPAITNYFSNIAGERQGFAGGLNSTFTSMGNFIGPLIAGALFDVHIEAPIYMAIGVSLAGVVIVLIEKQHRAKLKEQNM

[5] = molecular target: T1, Quinolone resistance protein NorA (Staphylococcus aureus); assay: Inhibition of NorA in Staphylococcus aureus 1199B assessed as potentiation of norfloxacin-induced antibacterial activity by measuring Norfloxacin MIC at sub MIC
[6] = molecular target: T1, Quinolone resistance protein NorA (Staphylococcus aureus); assay: Inhibition of NorA in Staphylococcus aureus 1199B assessed as potentiation of norfloxacin-induced antibacterial activity by measuring Norfloxacin MIC at sub MIC relative to norfloxacin MIC alone
[7] = molecular target: T1, Quinolone resistance protein NorA (Staphylococcus aureus); assay: Inhibition of NorA in Staphylococcus aureus 1199B assessed as potentiation of norfloxacin-induced antibacterial activity by measuring fractional inhibitory concentration
[8] = molecular target: T1, Quinolone resistance protein NorA (Staphylococcus aureus); assay: Inhibition of NorA in Staphylococcus aureus 1199B assessed as potentiation of ethidium bromide-induced antibacterial activity by measuring ethidium bromide MIC at sub MIC
[9] = molecular target: T1, Quinolone resistance protein NorA (Staphylococcus aureus); assay: Inhibition of NorA in Staphylococcus aureus 1199B assessed as potentiation of ethidium bromide-induced antibacterial activity by measuring ethidium bromide MIC at sub MIC relative to ethidium bromide MIC alone
[10] = molecular target: T1, Quinolone resistance protein NorA (Staphylococcus aureus); assay: Inhibition of NorA in Staphylococcus aureus 1199B assessed as potentiation of ethidium bromide-induced antibacterial activity by measuring fractional inhibitory concentration
[11] = molecular target: T1, Quinolone resistance protein NorA (Staphylococcus aureus); assay: Inhibition of NorA in Staphylococcus aureus 1199B assessed as potentiation of 3.1 ug/mL norfloxacin-induced bactericidal activity by measuring log reduction in bacterial count at 7.8 ug/mL measured after 8 hrs by time-kill kinetics assay; details: dose 7.8 µg/ml
[12] = molecular target: T1, Quinolone resistance protein NorA (Staphylococcus aureus); assay: Inhibition of NorA in Staphylococcus aureus 1199B assessed as potentiation of ethidium bromide-induced bactericidal activity at 62.5 ug/ml measured within 8 hrs by time-kill kinetics assay; details: dose 62.5 µg/ml
[13] = Cytotoxicity against kidney epithelial cells (unknown origin) assessed as cell viability at 50 ug/mL measured after 24 hrs by alamar blue assay relative to control; assay type: toxicity, cell-based, Fetal kidney cell; details: at 50 µg/mL, read-out: Activity
[14] = molecular target: T1, Quinolone resistance protein NorA (Staphylococcus aureus); assay: Inhibition of NorA in Staphylococcus aureus 1199B assessed as potentiation of norfloxacin-induced morphological changes by measuring appearance of undeveloped cells sticking together at sub MIC by field emission scanning electron microscopy
[15] = molecular target: T1, Quinolone resistance protein NorA (Staphylococcus aureus); assay: Inhibition of NorA in Staphylococcus aureus 1199B assessed as accumulation of ethidium bromide at 3.9 ug/ml by measuring fluorescence intensity measured at 5 mins interval for 40 mins by fluorescence spectrophotometry; details: dose 3.9 µg/ml
Staphylococcus aureus [16] = assay: Down regulation of NorA gene expression in Staphylococcus aureus 1199B at 3.9 ug/ml measured after 2 hrs by qRT-PCR analysis; assay type: functional; details: dose 3.9 µg/ml
Staphylococcus aureus [17] = assay: Down regulation of NorA gene expression in Staphylococcus aureus 1199B at 3.1 ug/ml measured after 2 hrs by qRT-PCR analysis relative to control; assay type: functional; details: dose 3.1 µg/ml
Staphylococcus aureus [18] = assay: Down regulation of NorA gene expression in Staphylococcus aureus 1199B at 3.1 ug/ml measured after 2 hrs in presence of norfloxacin by qRT-PCR analysis relative to norfloxacin; assay type: functional; details: dose 3.1 µg/ml
[19] = molecular target: T1, Quinolone resistance protein NorA (Staphylococcus aureus); assay: Inhibition of NorA in Staphylococcus aureus 1199B infected human THP-1 cells assessed as potentiation of norfloxacin-induced bactericidal activity by measuring reduction in bacterial count at modulatory concentration measured after 24 hrs; assay type: cell-based
[20] = molecular target: T1, Quinolone resistance protein NorA (Staphylococcus aureus); assay: Inhibition of NorA in Staphylococcus aureus 1199B infected human THP-1 cells assessed as potentiation of norfloxacin-induced bactericidal activity by measuring reduction in bacterial count at modulatory concentration measured after 24 hrs relative to control; assay type: cell-based
[21] = molecular target: T1, Quinolone resistance protein NorA (Staphylococcus aureus); assay: Inhibition of NorA in Staphylococcus aureus 1199B infected human THP-1 cells assessed as potentiation of norfloxacin-induced bactericidal activity by measuring reduction in intracellular invasion at modulatory concentration measured after 24 hrs; assay type: cell-based
[22] = molecular target: T1, Quinolone resistance protein NorA (Staphylococcus aureus); assay: Inhibition of NorA in Staphylococcus aureus 1199B infected human THP-1 cells assessed as potentiation of norfloxacin-induced bactericidal activity by measuring reduction in intracellular proliferation at modulatory concentration measured after 24 hrs; assay type: cell-based
[23] = molecular target: T1, Quinolone resistance protein NorA (Staphylococcus aureus); assay: Inhibition of NorA in Staphylococcus aureus 1199B infected human THP-1 cells assessed as potentiation of 6.2 ug/ml norfloxacin-induced bactericidal activity by measuring log reduction in bacterial count at 15.6 ug/ml measured after 24 hrs relative to control; assay type: cell-based; details: dose 15.6 µg/ml
[24] = molecular target: T1, Quinolone resistance protein NorA (Staphylococcus aureus); assay: Inhibition of NorA in Staphylococcus aureus 1199B infected human THP-1 cells assessed as potentiation of norfloxacin-induced bactericidal activity by measuring log reduction in bacterial count measured after 24 hrs relative to vancomycin; assay type: cell-based
[25] = molecular target: T1, Quinolone resistance protein NorA (Staphylococcus aureus); assay: Inhibition of NorA in Staphylococcus aureus 1199B assessed as potentiation of 3.1 ug/mL norfloxacin-induced bactericidal activity by measuring log reduction in bacterial count at 7.8 ug/mL measured after 24 hrs by time-kill kinetics assay; details: dose 7.8 µg/ml

CO[C@H]1/C=C/O[C@@]2(C)Oc3c(C)c(O)c4c(O)c(c(/C=N/N5CCN(C)CC5)c(O)c4c3C2=O)NC(=O)/C(C)=C\C=C\[C@H](C)[C@H](O)[C@@H](C)[C@@H](O)[C@@H](C)[C@H](OC(C)=O)[C@@H]1C [RIFAMPIN]
MIC (Staphylococcus aureus [1]): 0.21 µg/mL (≈ 0.255 µM)
MIC (Staphylococcus aureus [2]): 0.1 µg/mL (≈ 0.122 µM)
MIC (Staphylococcus aureus [3]): 0.1 µg/mL (≈ 0.122 µM)

O=C(O)c1cn(C2CC2)c2cc(N3CCNCC3)c(F)cc2c1=O [CIPROFLOXACIN]
MIC (Staphylococcus aureus [1]): 0.21 µg/mL (≈ 0.634 µM)
MIC (Staphylococcus aureus [2]): 0.05 µg/mL (≈ 0.151 µM)
MIC (Staphylococcus aureus [3]): 0.05 µg/mL (≈ 0.151 µM)

c1ccc(C2=NC(c3ccco3)Nc3ccccc32)cc1 (centres undefined)
MIC (Staphylococcus aureus [1]): 500 µg/mL (≈ 1820 µM)
MIC (Staphylococcus aureus [2]): 125 µg/mL (≈ 456 µM)
MIC (Staphylococcus aureus [3]): 250 µg/mL (≈ 911 µM)

CN1c2ccc(Cl)cc2C(c2ccccc2)=NC1c1ccc(Br)cc1 (centres undefined)
Flu intensity [4]: 23600
MIC (Staphylococcus aureus [1]): 500 µg/mL (≈ 1210 µM)
MIC (Staphylococcus aureus [2]): 125 µg/mL (≈ 304 µM)
MIC (Staphylococcus aureus [3]): 250 µg/mL (≈ 607 µM)
MIC [5]: 6.2 µg/mL
fold change (FC) [6]: 8
fractional inhibitory concentration index (FICI) [7]: 0.141
MIC [8]: 3.1 µg/mL
fold change (FC) [9]: 16
fractional inhibitory concentration index (FICI) [10]: 0.187
Activity [11]: > 3 log10CFU/ml
inhibition [12]: Active
viability at 24 h, 50 ug/mL [13]: 86.6%
inhibition [14]: Active
Flu intensity [15]: 70.6
Activity (Staphylococcus aureus [16]): Active
fold change (FC) (Staphylococcus aureus [17]): 8
fold change (FC) (Staphylococcus aureus [18]): 9
Activity [19]: 4.47 log10CFU/ml
fold change (FC) [20]: 4
inhibition [21]: Active
inhibition [22]: Active
FC [23]: 5
FC [24]: 3

Fc1ccccc1C1=NC(c2ccc(Br)cc2)Nc2ccc(Cl)cc21 (centres undefined)
MIC (Staphylococcus aureus [1]): > 1000 µg/mL
MIC (Staphylococcus aureus [2]): 125 µg/mL (≈ 301 µM)
MIC (Staphylococcus aureus [3]): 250 µg/mL (≈ 601 µM)

CC1(C)S[C@@H]2[C@H](NC(=O)[C@H](N)c3ccccc3)C(=O)N2[C@H]1C(=O)O [AMPICILLIN]
MIC (Staphylococcus aureus [1]): 0.42 µg/mL (≈ 1.2 µM)
MIC (Staphylococcus aureus [2]): 0.05 µg/mL (≈ 0.143 µM)
MIC (Staphylococcus aureus [3]): 0.1 µg/mL (≈ 0.286 µM)

C=CCOc1ccc(C2N=C(c3ccccc3)c3ccccc3N2)cc1 (centres undefined)
MIC (Staphylococcus aureus [1]): 500 µg/mL (≈ 1470 µM)
MIC (Staphylococcus aureus [2]): 125 µg/mL (≈ 367 µM)
MIC (Staphylococcus aureus [3]): 250 µg/mL (≈ 734 µM)

CN(C)[C@@H]1C(O)=C(C(N)=O)C(=O)[C@@]2(O)C(O)=C3C(=O)c4c(O)cccc4[C@@](C)(O)[C@H]3C[C@@H]12 [TETRACYCLINE]
MIC (Staphylococcus aureus [1]): 0.42 µg/mL (≈ 0.945 µM)
MIC (Staphylococcus aureus [2]): 0.02 µg/mL (≈ 0.045 µM)
MIC (Staphylococcus aureus [3]): 0.1 µg/mL (≈ 0.225 µM)

O=[N+]([O-])c1ccc2c(c1)C(c1ccccc1)=NC(c1ccccc1)N2 (centres undefined)
MIC (Staphylococcus aureus [1]): 500 µg/mL (≈ 1520 µM)
MIC (Staphylococcus aureus [2]): 125 µg/mL (≈ 380 µM)
MIC (Staphylococcus aureus [3]): 250 µg/mL (≈ 759 µM)

GENTAMICIN
MIC (Staphylococcus aureus [1]): 1.7 µg/mL
MIC (Staphylococcus aureus [2]): 0.21 µg/mL
MIC (Staphylococcus aureus [3]): 0.1 µg/mL

CN1c2ccc(Cl)cc2C(c2ccccc2)=NC1c1ccc([N+](=O)[O-])cc1 (centres undefined)
Flu intensity [4]: 573
MIC (Staphylococcus aureus [1]): 250 µg/mL (≈ 662 µM)
MIC (Staphylococcus aureus [2]): 125 µg/mL (≈ 331 µM)
MIC (Staphylococcus aureus [3]): 250 µg/mL (≈ 662 µM)
MIC [5]: 6.2 µg/mL
fold change (FC) [6]: 8
fractional inhibitory concentration index (FICI) [7]: 0.141
MIC [8]: 6.2 µg/mL
fold change (FC) [9]: 8
fractional inhibitory concentration index (FICI) [10]: 0.25
Activity [25]: > 3 log10CFU/ml
viability at 24 h, 50 ug/mL [13]: 83.1%
Flu intensity [15]: 100

Source: ChEMBL document CHEMBL5143555, “Potentiating the intracellular killing of Staphylococcus aureus by dihydroquinazoline analogues as NorA efflux pump inhibitor” (Bioorg Med Chem, 2022)
